Measured values: patent US10736883B2, “Triazole furan compounds as agonists of the APJ receptor” (AMGEN INC., priority 2016, dated 2020)

How the values were obtained:
APJ receptor = APJ receptor (Homo sapiens (Human), UniProt P35414); assay: [35S]GTPγS binding assay on membranes from CHO cells stably expressing human APJ receptor; assay type: biochemical; conditions: membranes of CHO cells stably expressing human APJ receptor, means of several independent experiments, read-out: Activity hAPJ SPA EC50 IP
Procedure, shortened: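 EC50 values were obtained by non-linear regression of [35S]GTPγS (0.2 nM) binding after 90 min at RT, with nonspecific binding defined by 100 μM GTPγS. Reactions used human APJ–expressing CHO cell membranes on WGA PS beads in HEPES pH 7.5 buffer with 5 mM MgCl2, 200 mM NaCl, 3 μM GDP and 0.1% BSA.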

[1] = test system: isolated perfused rat hearts; assay: Ex vivo isolated perfused rat heart (Langendorff) assay, load independent inotropic/lusitropic effects; conditions: percent change over vehicle; for Isolated Heart Assay dP/dtmax (%): contractility; for Isolated Heart Assay dP/dtmin (%): relaxation
Source text: Evidence for Load Independent Inotropic Effects with APJ Agonists Using Ex Vivo Assay (Isolated Perfused Rat Hearts)
Naive Sprague Dawley® SD rats (Harlan laboratories (Livermore, Calif. USA)) were anaesthetized and hearts were excised followed by cannulation in the Langendorff apparatus (Harvard apparatus, Holliston, Mass. USA) via aorta. The heart was perfused retrograde with modified oxygenated Krebs-Henseleit buffer (Skrzypiec-Spring M et al., (2007) J. Pharmacol Toxicol Methods 55: 113-126). The pressure of the solution causes the aortic valve to shut and the perfusate is then forced into the ostium and the coronary vessels. This allows the heart to beat for several hours. A balloon was inserted into the left ventricle (LV) to measure dP/dtmax (derivative of left ventricular pressure) as an index of cardiac contractility. The APJ agonist was perfused constantly in a dose dependent manner into the heart to examine cardiac contractility.
Example 210.0 was infused at different concentrations and load independent contractility was measured by index of LV dP/dtmax and the results are expressed as a percent change over vehicle. […] Example 210.0 was infused at different concentrations and load independent lusitropic effect (relaxation) was measured by index of LV dP/dtmin where results are expressed as percent change over vehicle. […] Example 51.0 was infused at different concentrations and load independent contractility was measured by index of LV dP/dtmax and the results are expressed as a percent change over vehicle. […] Example 51.0 was infused at different concentrations and load independent lusitropic effect (relaxation) was measured by index of LV dP/dtmin where results are expressed as percent change over vehicle.

APJ receptor, sequence (P35414 whole entry): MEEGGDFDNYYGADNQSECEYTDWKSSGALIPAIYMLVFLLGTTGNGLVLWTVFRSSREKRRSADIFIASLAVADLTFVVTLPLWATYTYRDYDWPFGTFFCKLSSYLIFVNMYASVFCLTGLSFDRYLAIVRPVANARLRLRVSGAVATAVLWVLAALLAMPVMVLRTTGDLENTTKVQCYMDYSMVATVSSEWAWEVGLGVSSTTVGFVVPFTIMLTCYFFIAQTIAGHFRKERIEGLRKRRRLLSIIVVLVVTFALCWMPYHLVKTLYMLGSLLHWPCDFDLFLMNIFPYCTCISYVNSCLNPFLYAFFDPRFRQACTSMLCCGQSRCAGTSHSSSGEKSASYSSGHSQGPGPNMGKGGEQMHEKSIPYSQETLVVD

Compound | EC50 (APJ receptor) | Isolated Heart Assay dP/dtmax (%) [1] | Isolated Heart Assay dP/dtmin (%) [1]
COc1cccc(OC)c1-n1c(NS(=O)(=O)[C@@H](C)Cc2ncc(F)cn2)nnc1-c1ccc(C)o1 (single isomer, unassigned) [Example 108.0, (2S)—N-(4-(2,6-Dimethoxyphenyl)-5-(5-methyl-2-furanyl)-4H-1,2,4-triazol-3-yl)-1-(5-fluoro-2-pyrimidinyl)-2-propanesulfonamide or (2R)—N-(4-(2,6-dimethoxyphenyl)-5-(5-methyl-2-furanyl)-4H-1,2,4-triazol-3-yl)-1-(5-fluoro-2-pyrimidinyl)-2-propanesulfonamide] | 0.25 nM | 38.8% | 30.1%
COc1cccc(OC)c1-n1c(NS(=O)(=O)[C@H](C)Cc2ccc(Cl)cc2)nnc1-c1ccco1 (single isomer, unassigned) [Example 205.0, (2R)-1-(4-chlorophenyl)-N-(4-(2,6-dimethoxyphenyl)-5-(2-furanyl)-4H-1,2,4-triazol-3-yl)-2-propanesulfonamide or (2S)-1-(4-chlorophenyl)-N-(4-(2,6-dimethoxyphenyl)-5-(2-furanyl)-4H-1,2,4-triazol-3-yl)-2-propanesulfonamide] | 2.3 nM | 18.8% | 20.5%
COc1cccc(OC)c1-n1c(NS(=O)(=O)CCc2ccc(F)cn2)nnc1-c1ccco1 [Example 41.0, N-(4-(2,6-dimethoxyphenyl)-5-(2-furanyl)-4H-1,2,4-triazol-3-yl)-2-(5-fluoro-2-pyridinyl)ethanesulfonamide] | – | 22.1% | 22.7%
CO[C@H](c1ncc(Cl)cn1)[C@H](C)S(=O)(=O)Nc1nnc(-c2ccc(C)o2)n1[C@@H]1CCCOC1 [Example 391.0, (1R,2S)-1-(5-chloropyrimidin-2-yl)-1-methoxy-N-(5-(5-methylfuran-2-yl)-4-((R)-tetrahydro-2H-pyran-3-yl)-4H-1,2,4-triazol-3-yl)propane-2-sulfonamide] | 8.4 nM | – | –
COCC(COC)n1c(NS(=O)(=O)[C@@H](C)[C@@H](OC(C)C)c2ncc(Cl)cn2)nnc1-c1ccc(C)o1 [Example 392.0, (1S,2S)-1-(5-chloro-2-pyrimidinyl)-N-(4-(1,3-dimethoxy-2-propanyl)-5-(5-methyl-2-furanyl)-4H-1,2,4-triazol-3-yl)-1-(2-propanyloxy)-2-propanesulfonamide] | 0.55 nM | – | –
COc1ncnc(OC)c1-n1c(NS(=O)(=O)[C@@H](C)[C@H](C)c2ncc(F)cn2)nnc1-c1ccc(C)o1 [Example 393.0, (2S,3R)-N-(4-(4,6-dimethoxy-5-pyrimidinyl)-5-(5-methyl-2-furanyl)-4H-1,2,4-triazol-3-yl)-3-(5-fluoro-2-pyrimidinyl)-2-butanesulfonamide] | 0.28 nM | – | –
COc1ncnc(OC)c1-n1c(NS(=O)(=O)[C@@H](C)[C@H](C)c2ncc(F)cn2)nnc1-c1ccc(Br)o1 [Example 394.0, (2S,3R)-N-(5-(5-bromo-2-furanyl)-4-(4,6-dimethoxy-5-pyrimidinyl)-4H-1,2,4-triazol-3-yl)-3-(5-fluoro-2-pyrimidinyl)-2-butanesulfonamide] | 0.31 nM | – | –
[2H]C([2H])([2H])c1ccc(-c2nnc(NS(=O)(=O)[C@@H](C)[C@H](C)c3ncc(F)cn3)n2-c2c(OC)ncnc2OC)o1 [Example 395.0, (2S,3R)—N-(4-(4,6-Dimethoxy-5-pyrimidinyl)-5-(5-trideuteromethyl-2-furanyl)-4H-1,2,4-triazol-3-yl)-3-(5-fluoro-2-pyrimidinyl)-2-butanesulfonamide] | 0.26 nM | – | –
COc1ncnc(OC)c1-n1c(NS(=O)(=O)[C@@H](C)[C@H](C)c2ncc(C#N)cn2)nnc1-c1ccc(C)o1 [Example 397.0, (2S,3R)-3-(5-Cyano-2-pyrimidinyl)-N-(4-(4,6-dimethoxy-5-pyrimidinyl)-5-(5-methyl-2-furanyl)-4H-1,2,4-triazol-3-yl)-2-butanesulfonamide] | 0.51 nM | – | –
COC[C@H](C)n1c(NS(=O)(=O)[C@@H](C)[C@H](C)c2ncc(Cl)cn2)nnc1-c1ccc(C)o1 [Example 398.0, (2S,3R)-3-(5-chloro-2-pyrimidinyl)-N-(4-((2S)-1-methoxy-2-propanyl)-5-(5-methyl-2-furanyl)-4H-1,2,4-triazol-3-yl)-2-butanesulfonamide] | 10 nM | – | –
COc1ncnc(OC)c1-n1c(NS(=O)(=O)[C@@H](C)[C@H](C)c2ccc(Cl)cn2)nnc1-c1ccc(C)o1 [Example 400.0, (2S,3R)-3-(5-chloro-2-pyridinyl)-N-(4-(4,6-dimethoxy-5-pyrimidinyl)-5-(5-methyl-2-furanyl)-4H-1,2,4-triazol-3-yl)-2-butanesulfonamide] | 0.1 nM | – | –
COc1ncnc(OC)c1-n1c(NS(=O)(=O)[C@@H](C)[C@@H](OC(C)C)c2ncc(C)cn2)nnc1-c1ccc(C)o1 [Example 401.0, (1S,2S)-N-(4-(4,6-dimethoxypyrimidin-5-yl)-5-(5-methylfuran-2-yl)-4H-1,2,4-triazol-3-yl)-1-isopropoxy-1-(5-methylpyrimidin-2-yl)propane-2-sulfonamide] | 0.53 nM | – | –
COc1cccc(OC)c1-n1c(NS(=O)(=O)c2cccc(CO)c2)nnc1-c1ccc(C)o1 [Example 409.0, N-(4-(2,6-dimethoxyphenyl)-5-(5-methyl-2-furanyl)-4H-1,2,4-triazol-3-yl)-3-(hydroxymethyl)benzenesulfonamide] | 43 nM | – | –
(1R,2R)-N-(4-(2,6-dimethoxyphenyl)-5-(5-methyl-2-furanyl)-4H-1,2,4-triazol-3-yl)-1-hydroxy-1-(5-methyl-2-pyrimidinyl)-2-propanesulfonamide or (1S,2S)-N-(4-(2,6-dimethoxyphenyl)-5-(5-methyl-2-furanyl)-4H-1,2,4-triazol-3-yl)-1-hydroxy-1-(5-methyl-2-pyrimidinyl)-2-propanesulfonamide [Example 244.0] | 0.94 nM | – | –
(1R,2R)-N-(4-(2,6-dimethoxyphenyl)-5-(5-methyl-2-furanyl)-4H-1,2,4-triazol-3-yl)-1-methoxy-1-(5-methyl-2-pyrimidinyl)-2-propanesulfonamide or (1S,2S)-N-(4-(2,6-dimethoxyphenyl)-5-(5-methyl-2-furanyl)-4H-1,2,4-triazol-3-yl)-1-methoxy-1-(5-methyl-2-pyrimidinyl)-2-propanesulfonamide [Example 226.0] | 0.35 nM | – | –
(1R,2R)-N-(4-(2,6-dimethoxyphenyl)-5-(5-methyl-2-furanyl)-4H-1,2,4-triazol-3-yl)-1-methoxy-1-(5-methyl-2-pyrimidinyl)-2-propanesulfonamide or (1S,2S)-N-(4-(2,6-dimethoxyphenyl)-5-(5-methyl-2-furanyl)-4H-1,2,4-triazol-3-yl)-1-methoxy-1-(5-methyl-2-pyrimidinyl)-2-propanesulfonamide [Example 250.0] | 3.3 nM | – | –
(1R,2S)-1-(5-chloro-2-pyrimidinyl)-N-(4-(2,6-dimethoxyphenyl)-5-(5-methyl-2-furanyl)-4H-1,2,4-triazol-3-yl)-1-hydroxy-2-propanesulfonamide or (1S,2R)-1-(5-chloro-2-pyrimidinyl)-N-(4-(2,6-dimethoxyphenyl)-5-(5-methyl-2-furanyl)-4H-1,2,4-triazol-3-yl)-1-hydroxy-2-propanesulfonamide [Example 212.0] | 0.074 nM | – | –
(1R,2S)-1-(5-chloro-2-pyrimidinyl)-N-(4-(2,6-dimethoxyphenyl)-5-(5-methyl-2-furanyl)-4H-1,2,4-triazol-3-yl)-1-hydroxy-2-propanesulfonamide or (1S,2R)-1-(5-chloro-2-pyrimidinyl)-N-(4-(2,6-dimethoxyphenyl)-5-(5-methyl-2-furanyl)-4H-1,2,4-triazol-3-yl)-1-hydroxy-2-propanesulfonamide [Example 216.0] | 0.23 nM | – | –
(1S,2R)-N-(4-(2,6-dimethoxyphenyl)-5-(5-methyl-2-furanyl)-4H-1,2,4-triazol-3-yl)-1-hydroxy-1-(5-methyl-2-pyrazinyl)-2-propanesulfonamide or (1R,2S)-N-(4-(2,6-dimethoxyphenyl)-5-(5-methyl-2-furanyl)-4H-1,2,4-triazol-3-yl)-1-hydroxy-1-(5-methyl-2-pyrazinyl)-2-propanesulfonamide [Example 213.0] | 0.12 nM | – | –
(2R)-1-(3-cyano-5-fluoro-2-pyridinyl)-N-(4-(2,6-dimethoxyphenyl)-5-(2-furanyl)-4H-1,2,4-triazol-3-yl)-2-propanesulfonamide or (2S)-1-(3-cyano-5-fluoro-2-pyridinyl)-N-(4-(2,6-dimethoxyphenyl)-5-(2-furanyl)-4H-1,2,4-triazol-3-yl)-2-propanesulfonamide [Example 29.0] | 0.82 nM | – | –
